# Where “and” joins values, the source holds several entries; their conditions need not be identical. Identical values can stand only once.
# Test: Biodistribution of representative compounds (Example 13), % ID/g in tissues of tumor-bearing mice
# Type: in vivo, mouse
# [1] = 30 min, 20 μCi per mouse (SA 6500 mCi/μmol)
# [2] = 60 min + Blocker cold FAPI-04 (10 nmole, 6500-fold)
# [3] = 60 min, 20 μCi per mouse (SA 6500 mCi/μmol)
smiles,measurement,setting,value
N#C[C@@H]1CCCN1C(=O)CNC(=O)c1ccnc2ccc(OCCCNC(=O)[C@@H](CC(=O)O)NC(=O)[C@@H](CC(=O)O)NC(=O)c3ccc([18F])nc3)cc12 [[^18F]JHU1221785],% ID/g Bladder (individual mouse),[1],0.93 % ID/g and 4.69 % ID/g
same,% ID/g Blood (individual mouse),[1],5.98 % ID/g and 3.90 % ID/g
same,% ID/g Brain (individual mouse),[1],0.14 % ID/g and 0.15 % ID/g
same,% ID/g Fat (individual mouse),[1],0.21 % ID/g and 0.19 % ID/g
same,% ID/g Femur (individual mouse),[1],2.78 % ID/g and 2.44 % ID/g
same,% ID/g Heart (individual mouse),[1],2.51 % ID/g and 2.01 % ID/g
same,% ID/g Kidney (individual mouse),[1],1.60 % ID/g and 3.33 % ID/g
same,% ID/g Large intestine (individual mouse),[1],0.58 % ID/g and 0.86 % ID/g
same,% ID/g Liver (individual mouse),[1],6.56 % ID/g and 8.08 % ID/g
same,% ID/g Lung (individual mouse),[1],2.77 % ID/g and 2.53 % ID/g
same,% ID/g Mean Bladder,[1],2.81 % ID/g
same,% ID/g Mean Blood,[1],4.94 % ID/g
same,% ID/g Mean Brain,[1],0.14 % ID/g
same,% ID/g Mean Fat,[1],0.20 % ID/g
same,% ID/g Mean Femur,[1],2.61 % ID/g
same,% ID/g Mean Heart,[1],2.26 % ID/g
same,% ID/g Mean Kidney,[1],2.47 % ID/g
same,% ID/g Mean Large intestine,[1],0.72 % ID/g
same,% ID/g Mean Liver,[1],7.32 % ID/g
same,% ID/g Mean Lung,[1],2.65 % ID/g
same,% ID/g Mean Muscle,[1],0.96 % ID/g
same,% ID/g Mean Pancreas,[1],2.31 % ID/g
same,% ID/g Mean Salivary gland,[1],2.93 % ID/g
same,% ID/g Mean Small intestine,[1],2.49 % ID/g
same,% ID/g Mean Spleen,[1],1.00 % ID/g
same,% ID/g Mean Stomach,[1],0.82 % ID/g
same,% ID/g Mean Tumor,[1],1.24 % ID/g
same,% ID/g Muscle (individual mouse),[1],0.81 % ID/g and 1.12 % ID/g
same,% ID/g Pancreas (individual mouse),[1],1.92 % ID/g and 2.71 % ID/g
same,% ID/g Salivery gland (individual mouse),[1],2.81 % ID/g and 3.05 % ID/g
same,% ID/g Small intestine (individual mouse),[1],2.60 % ID/g and 2.38 % ID/g
same,% ID/g Spleen (individual mouse),[1],1.03 % ID/g and 0.97 % ID/g
same,% ID/g Stomach (individual mouse),[1],0.72 % ID/g and 0.92 % ID/g
same,% ID/g Tumor (individual mouse),[1],1.14 % ID/g
same,% ID/g Bladder (individual mouse),[2],0.23 % ID/g and 0.67 % ID/g
same,% ID/g Blood (individual mouse),[2],0.11 % ID/g and 9.26 % ID/g
same,% ID/g Brain (individual mouse),[2],0.02 % ID/g and 0.04 % ID/g
same,% ID/g Fat (individual mouse),[2],0.03 % ID/g and 0.21 % ID/g
same,% ID/g Femur (individual mouse),[2],1.52 % ID/g and 1.50 % ID/g
same,% ID/g Heart (individual mouse),[2],0.06 % ID/g and 0.07 % ID/g
same,% ID/g Kidney (individual mouse),[2],0.41 % ID/g and 0.51 % ID/g
same,% ID/g Large intestine (individual mouse),[2],0.08 % ID/g and 0.33 % ID/g
same,% ID/g Liver (individual mouse),[2],9.42 % ID/g and 10.36 % ID/g
same,% ID/g Lung (individual mouse),[2],0.13 % ID/g and 0.20 % ID/g
same,% ID/g Mean Bladder,[2],0.43 % ID/g
same,% ID/g Mean Blood,[2],4.68 % ID/g
same,% ID/g Mean Brain,[2],0.03 % ID/g
same,% ID/g Mean Fat,[2],0.12 % ID/g
same,% ID/g Mean Femur,[2],1.51 % ID/g
same,% ID/g Mean Heart,[2],0.07 % ID/g
same,% ID/g Mean Kidney,[2],0.46 % ID/g
same,% ID/g Mean Large intestine,[2],0.20 % ID/g
same,% ID/g Mean Liver,[2],9.69 % ID/g
same,% ID/g Mean Lung,[2],0.17 % ID/g
same,% ID/g Mean Muscle,[2],0.06 % ID/g
same,% ID/g Mean Pancreas,[2],0.13 % ID/g
same,% ID/g Mean Salivary gland,[2],0.05 % ID/g
same,% ID/g Mean Small intestine,[2],3.54 % ID/g
same,% ID/g Mean Spleen,[2],0.16 % ID/g
same,% ID/g Mean Stomach,[2],0.16 % ID/g
same,% ID/g Mean Tumor,[2],0.10 % ID/g
same,% ID/g Muscle (individual mouse),[2],0.04 % ID/g and 0.07 % ID/g
same,% ID/g Pancreas (individual mouse),[2],0.05 % ID/g and 0.22 % ID/g
same,% ID/g Salivery gland (individual mouse),[2],0.04 % ID/g and 0.06 % ID/g
same,% ID/g Small intestine (individual mouse),[2],0.88 % ID/g and 6.19 % ID/g
same,% ID/g Spleen (individual mouse),[2],0.08 % ID/g and 0.25 % ID/g
same,% ID/g Stomach (individual mouse),[2],0.09 % ID/g and 0.23 % ID/g
same,% ID/g Tumor (individual mouse),[2],0.08 % ID/g and 0.11 % ID/g
same,% ID/g Bladder (individual mouse),[3],0.76 % ID/g and 0.92 % ID/g
same,% ID/g Blood (individual mouse),[3],2.56 % ID/g and 4.57 % ID/g
same,% ID/g Brain (individual mouse),[3],0.09 % ID/g and 0.12 % ID/g
same,% ID/g Fat (individual mouse),[3],0.22 % ID/g and 0.12 % ID/g
same,% ID/g Femur (individual mouse),[3],2.06 % ID/g and 2.07 % ID/g
same,% ID/g Heart (individual mouse),[3],1.38 % ID/g and 1.73 % ID/g
same,% ID/g Kidney (individual mouse),[3],0.79 % ID/g and 1.04 % ID/g
same,% ID/g Large intestine (individual mouse),[3],0.61 % ID/g and 0.78 % ID/g
same,% ID/g Liver (individual mouse),[3],7.41 % ID/g and 8.27 % ID/g
same,% ID/g Lung (individual mouse),[3],1.70 % ID/g and 2.65 % ID/g
same,% ID/g Mean Bladder,[3],0.84 % ID/g
same,% ID/g Mean Blood,[3],3.57 % ID/g
same,% ID/g Mean Brain,[3],0.10 % ID/g
same,% ID/g Mean Fat,[3],0.22 % ID/g
same,% ID/g Mean Femur,[3],2.07 % ID/g
same,% ID/g Mean Heart,[3],1.56 % ID/g
same,% ID/g Mean Kidney,[3],0.91 % ID/g
same,% ID/g Mean Large intestine,[3],0.69 % ID/g
same,% ID/g Mean Liver,[3],7.84 % ID/g
same,% ID/g Mean Lung,[3],2.18 % ID/g
same,% ID/g Mean Muscle,[3],0.98 % ID/g
same,% ID/g Mean Pancreas,[3],2.07 % ID/g
same,% ID/g Mean Salivary gland,[3],3.45 % ID/g
same,% ID/g Mean Small intestine,[3],1.83 % ID/g
same,% ID/g Mean Spleen,[3],0.93 % ID/g
same,% ID/g Mean Stomach,[3],0.71 % ID/g
same,% ID/g Mean Tumor,[3],2.23 % ID/g
same,% ID/g Muscle (individual mouse),[3],1.03 % ID/g and 0.69 % ID/g
same,% ID/g Pancreas (individual mouse),[3],1.96 % ID/g and 2.17 % ID/g
same,% ID/g Salivery gland (individual mouse),[3],2.17 % ID/g and 4.73 % ID/g
same,% ID/g Small intestine (individual mouse),[3],1.65 % ID/g and 2.01 % ID/g
same,% ID/g Spleen (individual mouse),[3],0.78 % ID/g and 1.09 % ID/g
same,% ID/g Stomach (individual mouse),[3],0.60 % ID/g and 0.81 % ID/g
same,% ID/g Tumor (individual mouse),[3],2.99 % ID/g and 1.47 % ID/g
